Laboratory results reported in patent publication US20230085307A1, “PYRIDAZINONE COMPOUND AND HERBICIDE” (NISSAN CHEMICAL CORPORATION, priority 2019, published 2023).

Assays:
persian speedwell [1] = experiment: Test Example 4: herbicidal effect by soil treatment (Table 19, symbol R); type: in vivo, Persian speedwell (Veronica persica); conditions: AAH 320 g/ha
Method in brief: (§1)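 Scoring uses the grading scale of an earlier test, three weeks post-application. Treatment consists of spraying a diluted emulsion formulation across the surface of sterilized diluvial soil in which seeds are buried near 1.5 cm deep; boxes are kept in a greenhouse between 25° C. and 30° C.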

persian speedwell [2] = experiment: Test Example 5: herbicidal effect by foliage application, plastic box (Table 20, symbol R); type: in vivo, Persian speedwell (Veronica persica); conditions: foliage application, AAH 320 g/ha, three weeks after application
Method in brief: (§2)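 Post-emergence foliar test in sterilized diluvial soil. Compound applied as water-diluted emulsion at a predetermined rate to 14-day-old plants; evaluation at three weeks.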

blackgrass [3] = experiment: Test Example 5: herbicidal effect by foliage application, plastic box (Table 20, symbol J); type: in vivo, blackgrass (Alopecurus myosuroides); conditions: foliage application, AAH 320 g/ha, three weeks after application
Method in brief: as §2

barnyard grass [4] = experiment: Test Example 4: herbicidal effect by soil treatment (Table 19, symbol H); type: in vivo, barnyard grass (Echinochloa crus-galli); conditions: AAH 320 g/ha
Method in brief: as §1

rice flat sedge = experiment: Test Example 3: herbicidal effect by foliage application, Wagner pot (Table 18, symbol E); type: in vivo, rice flat sedge (Cyperus iria); conditions: 320 g/ha
Method in brief: (§3)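 Plants were sown in alluvial soil held under 0.1–0.5 cm standing water and grown 14 days in a greenhouse at 25–30 °C. An emulsifiable formulation, water-diluted to the set dose, was then sprayed onto the foliage, and effects were scored three weeks later using previously defined criteria.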

barnyard grass [5] = experiment: Test Example 3: herbicidal effect by foliage application, Wagner pot (Table 18, symbol H); type: in vivo, barnyard grass (Echinochloa crus-galli); conditions: 320 g/ha
Method in brief: as §3

green foxtail [6] = experiment: Test Example 4: herbicidal effect by soil treatment (Table 19, symbol G); type: in vivo, green foxtail (Setaria viridis); conditions: AAH 320 g/ha
Method in brief: as §1

green foxtail [7] = experiment: Test Example 5: herbicidal effect by foliage application, plastic box (Table 20, symbol G); type: in vivo, green foxtail (Setaria viridis); conditions: foliage application, AAH 320 g/ha, three weeks after application
Method in brief: as §2

velvetleaf [8] = experiment: Test Example 5: herbicidal effect by foliage application, plastic box (Table 20, symbol M); type: in vivo, velvetleaf (Abutilon theophrasti); conditions: foliage application, AAH 320 g/ha, three weeks after application
Method in brief: as §2

blackgrass [9] = experiment: Test Example 4: herbicidal effect by soil treatment (Table 19, symbol J); type: in vivo, blackgrass (Alopecurus myosuroides); conditions: AAH 320 g/ha
Method in brief: as §1

redroot pigweed [10] = experiment: Test Example 4: herbicidal effect by soil treatment (Table 19, symbol N); type: in vivo, redroot pigweed (Amaranthus retroflexus); conditions: AAH 320 g/ha
Method in brief: as §1

windgrass [11] = experiment: Test Example 4: herbicidal effect by soil treatment (Table 19, symbol L); type: in vivo, windgrass (Apera spica-venti); conditions: AAH 320 g/ha
Method in brief: as §1

southern crabgrass [12] = experiment: Test Example 5: herbicidal effect by foliage application, plastic box (Table 20, symbol F); type: in vivo, southern crabgrass (Digitaria ciliaris); conditions: foliage application, AAH 320 g/ha, three weeks after application
Method in brief: as §2

redroot pigweed [13] = experiment: Test Example 5: herbicidal effect by foliage application, plastic box (Table 20, symbol N); type: in vivo, redroot pigweed (Amaranthus retroflexus); conditions: foliage application, AAH 320 g/ha, three weeks after application
Method in brief: as §2

lambsquarters [14] = experiment: Test Example 5: herbicidal effect by foliage application, plastic box (Table 20, symbol O); type: in vivo, lambsquarters (Chenopodium album); conditions: foliage application, AAH 320 g/ha, three weeks after application
Method in brief: as §2

chickweed [15] = experiment: Test Example 4: herbicidal effect by soil treatment (Table 19, symbol P); type: in vivo, common chickweed (Stellaria media); conditions: AAH 320 g/ha
Method in brief: as §1

wild oat [16] = experiment: Test Example 4: herbicidal effect by soil treatment (Table 19, symbol I); type: in vivo, wild oat (Avena fatua); conditions: AAH 320 g/ha
Method in brief: as §1

wild oat [17] = experiment: Test Example 5: herbicidal effect by foliage application, plastic box (Table 20, symbol I); type: in vivo, wild oat (Avena fatua); conditions: foliage application, AAH 320 g/ha, three weeks after application
Method in brief: as §2

chickweed [18] = experiment: Test Example 5: herbicidal effect by foliage application, plastic box (Table 20, symbol P); type: in vivo, common chickweed (Stellaria media); conditions: foliage application, AAH 320 g/ha, three weeks after application
Method in brief: as §2

southern crabgrass [19] = experiment: Test Example 4: herbicidal effect by soil treatment (Table 19, symbol F); type: in vivo, southern crabgrass (Digitaria ciliaris); conditions: AAH 320 g/ha
Method in brief: as §1

Italian ryegrass [20] = experiment: Test Example 5: herbicidal effect by foliage application, plastic box (Table 20, symbol K); type: in vivo, Italian ryegrass (Lolium multiflorum); conditions: foliage application, AAH 320 g/ha, three weeks after application
Method in brief: as §2

windgrass [21] = experiment: Test Example 5: herbicidal effect by foliage application, plastic box (Table 20, symbol L); type: in vivo, windgrass (Apera spica-venti); conditions: foliage application, AAH 320 g/ha, three weeks after application
Method in brief: as §2

lambsquarters [22] = experiment: Test Example 4: herbicidal effect by soil treatment (Table 19, symbol O); type: in vivo, lambsquarters (Chenopodium album); conditions: AAH 320 g/ha
Method in brief: as §1

barnyard grass [23] = experiment: Test Example 5: herbicidal effect by foliage application, plastic box (Table 20, symbol H); type: in vivo, barnyard grass (Echinochloa crus-galli); conditions: foliage application, AAH 320 g/ha, three weeks after application
Method in brief: as §2

Italian ryegrass [24] = experiment: Test Example 4: herbicidal effect by soil treatment (Table 19, symbol K); type: in vivo, Italian ryegrass (Lolium multiflorum); conditions: AAH 320 g/ha
Method in brief: as §1

Chinese sprangletop = experiment: Test Example 3: herbicidal effect by foliage application, Wagner pot (Table 18, symbol D); type: in vivo, chinese sprangletop (Leptochloa chinensis); conditions: 320 g/ha
Method in brief: as §3

velvetleaf [25] = experiment: Test Example 4: herbicidal effect by soil treatment (Table 19, symbol M); type: in vivo, velvetleaf (Abutilon theophrasti); conditions: AAH 320 g/ha
Method in brief: as §1

Row | SMILES | R: persian speedwell, herbicidal effect rating (persian speedwell [1]) | R: persian speedwell, herbicidal effect (persian speedwell [2]) | J: blackgrass, herbicidal effect (blackgrass [3]) | H: barnyard grass, herbicidal effect rating (barnyard grass [4]) | herbicidal effect on E (rice flat sedge), rating 0-5 (rice flat sedge) | herbicidal effect on H (barnyard grass), rating 0-5 (barnyard grass [5]) | G: green foxtail, herbicidal effect rating (green foxtail [6]) | G: green foxtail, herbicidal effect (green foxtail [7]) | M: velvetleaf, herbicidal effect (velvetleaf [8]) | J: blackgrass, herbicidal effect rating (blackgrass [9]) | N: redroot pigweed, herbicidal effect rating (redroot pigweed [10]) | L: windgrass, herbicidal effect rating (windgrass [11]) | F: southern crabgrass, herbicidal effect (southern crabgrass [12]) | N: redroot pigweed, herbicidal effect (redroot pigweed [13]) | O: lambsquarters, herbicidal effect (lambsquarters [14]) | P: chickweed, herbicidal effect rating (chickweed [15]) | I: wild oat, herbicidal effect rating (wild oat [16]) | I: wild oat, herbicidal effect (wild oat [17]) | P: chickweed, herbicidal effect (chickweed [18]) | F: southern crabgrass, herbicidal effect rating (southern crabgrass [19]) | further results
1 | Cc1nn(C)c(=O)c(-c2c(-c3ccc(C(F)(F)F)cc3)sc3ccccc23)c1O [1-129] | 4 (Herbicidal rate of 70% or more and less than 90%) | 5 (Herbicidal rate of 90% or more (almost completely withered)) | 0 (Herbicidal rate of 5% or less (almost no effect)) | 0 (Herbicidal rate of 5% or less (almost no effect)) | 5 (Herbicidal rate of 90% or more (almost completely withered)) | 3 (Herbicidal rate of 40% or more and less than 70%) | 0 (Herbicidal rate of 5% or less (almost no effect)) | 2 (Herbicidal rate of 20% or more and less than 40%) | 5 (Herbicidal rate of 90% or more (almost completely withered)) | 0 (Herbicidal rate of 5% or less (almost no effect)) | 5 (Herbicidal rate of 90% or more (almost completely withered)) | 0 (Herbicidal rate of 5% or less (almost no effect)) | 0 (Herbicidal rate of 5% or less (almost no effect)) | 5 (Herbicidal rate of 90% or more (almost completely withered)) | 4 (Herbicidal rate of 70% or more and less than 90%) | 1 (Herbicidal rate of 5% or more and less than 20%) | 0 (Herbicidal rate of 5% or less (almost no effect)) | 0 (Herbicidal rate of 5% or less (almost no effect)) | 5 (Herbicidal rate of 90% or more (almost completely withered)) | 0 (Herbicidal rate of 5% or less (almost no effect)) | K: Italian ryegrass, herbicidal effect (Italian ryegrass [20]): 5 (Herbicidal rate of 90% or more (almost completely withered)); L: windgrass, herbicidal effect (windgrass [21]): 0 (Herbicidal rate of 5% or less (almost no effect)); O: lambsquarters, herbicidal effect rating (lambsquarters [22]): 5 (Herbicidal rate of 90% or more (almost completely withered)); H: barnyard grass, herbicidal effect (barnyard grass [23]): 3 (Herbicidal rate of 40% or more and less than 70%); K: Italian ryegrass, herbicidal effect rating (Italian ryegrass [24]): 5 (Herbicidal rate of 90% or more (almost completely withered)); herbicidal effect on D (Chinese sprangletop), rating 0-5 (Chinese sprangletop): 3 (Herbicidal rate of 40% or more and less than 70%); M: velvetleaf, herbicidal effect rating (velvetleaf [25]): 2 (Herbicidal rate of 20% or more and less than 40%)
2 | Cc1nn(C)c(=O)c(-c2c(-c3ccc(OCC#N)cc3)sc3ccccc23)c1O [1-137] | 3 (Herbicidal rate of 40% or more and less than 70%) | 4 (Herbicidal rate of 70% or more and less than 90%) | 0 (Herbicidal rate of 5% or less (almost no effect)) | 0 (Herbicidal rate of 5% or less (almost no effect)) | 5 (Herbicidal rate of 90% or more (almost completely withered)) | 3 (Herbicidal rate of 40% or more and less than 70%) | 2 (Herbicidal rate of 20% or more and less than 40%) | 0 (Herbicidal rate of 5% or less (almost no effect)) | 3 (Herbicidal rate of 40% or more and less than 70%) | 0 (Herbicidal rate of 5% or less (almost no effect)) | 3 (Herbicidal rate of 40% or more and less than 70%) | 0 (Herbicidal rate of 5% or less (almost no effect)) | 0 (Herbicidal rate of 5% or less (almost no effect)) | 0 (Herbicidal rate of 5% or less (almost no effect)) | 3 (Herbicidal rate of 40% or more and less than 70%) | 0 (Herbicidal rate of 5% or less (almost no effect)) | 0 (Herbicidal rate of 5% or less (almost no effect)) | 0 (Herbicidal rate of 5% or less (almost no effect)) | 3 (Herbicidal rate of 40% or more and less than 70%) | 0 (Herbicidal rate of 5% or less (almost no effect)) | K: Italian ryegrass, herbicidal effect (Italian ryegrass [20]): 0 (Herbicidal rate of 5% or less (almost no effect)); L: windgrass, herbicidal effect (windgrass [21]): 0 (Herbicidal rate of 5% or less (almost no effect)); O: lambsquarters, herbicidal effect rating (lambsquarters [22]): 2 (Herbicidal rate of 20% or more and less than 40%); H: barnyard grass, herbicidal effect (barnyard grass [23]): 1 (Herbicidal rate of 5% or more and less than 20%); K: Italian ryegrass, herbicidal effect rating (Italian ryegrass [24]): 0 (Herbicidal rate of 5% or less (almost no effect)); herbicidal effect on D (Chinese sprangletop), rating 0-5 (Chinese sprangletop): 3 (Herbicidal rate of 40% or more and less than 70%); M: velvetleaf, herbicidal effect rating (velvetleaf [25]): 0 (Herbicidal rate of 5% or less (almost no effect))
3 | C=CCOc1ccc(-c2sc3ccccc3c2-c2c(O)c(C)nn(C)c2=O)cc1 [1-139] | 5 (Herbicidal rate of 90% or more (almost completely withered)) | 5 (Herbicidal rate of 90% or more (almost completely withered)) | 4 (Herbicidal rate of 70% or more and less than 90%) | 4 (Herbicidal rate of 70% or more and less than 90%) | 5 (Herbicidal rate of 90% or more (almost completely withered)) | 5 (Herbicidal rate of 90% or more (almost completely withered)) | 3 (Herbicidal rate of 40% or more and less than 70%) | 5 (Herbicidal rate of 90% or more (almost completely withered)) | 4 (Herbicidal rate of 70% or more and less than 90%) | 0 (Herbicidal rate of 5% or less (almost no effect)) | 5 (Herbicidal rate of 90% or more (almost completely withered)) | 3 (Herbicidal rate of 40% or more and less than 70%) | 5 (Herbicidal rate of 90% or more (almost completely withered)) | 5 (Herbicidal rate of 90% or more (almost completely withered)) | 4 (Herbicidal rate of 70% or more and less than 90%) | 5 (Herbicidal rate of 90% or more (almost completely withered)) | 0 (Herbicidal rate of 5% or less (almost no effect)) | 4 (Herbicidal rate of 70% or more and less than 90%) | 5 (Herbicidal rate of 90% or more (almost completely withered)) | 0 (Herbicidal rate of 5% or less (almost no effect)) | K: Italian ryegrass, herbicidal effect (Italian ryegrass [20]): 5 (Herbicidal rate of 90% or more (almost completely withered)); L: windgrass, herbicidal effect (windgrass [21]): 5 (Herbicidal rate of 90% or more (almost completely withered)); O: lambsquarters, herbicidal effect rating (lambsquarters [22]): 4 (Herbicidal rate of 70% or more and less than 90%); H: barnyard grass, herbicidal effect (barnyard grass [23]): 5 (Herbicidal rate of 90% or more (almost completely withered)); K: Italian ryegrass, herbicidal effect rating (Italian ryegrass [24]): 5 (Herbicidal rate of 90% or more (almost completely withered)); herbicidal effect on D (Chinese sprangletop), rating 0-5 (Chinese sprangletop): 0 (Herbicidal rate of 5% or less (almost no effect)); M: velvetleaf, herbicidal effect rating (velvetleaf [25]): 2 (Herbicidal rate of 20% or more and less than 40%)
